Measurements: patent publication US8178506B2, “Oligomeric compounds and compositions for use in modulation of small non-coding RNAs” (Regulus Therapeutics Inc., priority 2003, dated 2012)

Test system: preadipocytes / differentiating adipocytes
Assay: Adipocyte differentiation assay, markers taken together
Assay type: cell-based, human
Details: for expression of the other four hallmark genes (HSL, aP2, Glut4, PPARγ): control ISIS 342673
Experimental: Oligomeric compounds of the invention are tested for their effects on preadipocyte differentiation. […] For the other adipocyte differentiation markers assayed, an oligomeric compound targeted to PPAR-γ, also known to inhibit adipocyte differentiation, may be used as a positive control.
Cells are transfected as described herein. […] Untreated control cells receive LIPOFECTIN™ only.
After the cells have reach confluence (approximately three days), they are exposed for an additional three days to differentiation medium (Zen-Bio, Inc., Research Triangle Park, N.C.) containing a PPAR-γ agonist, IBMX, dexamethasone, and insulin. Cells are then fed adipocyte medium (Zen-Bio, Inc.), which is replaced at 2 or 3 day intervals.
For assaying adipocyte differentiation, expression of the four hallmark genes, HSL, aP2, Glut4, and PPARγ, as well as triglyceride (TG) accumulation and leptin secretion were measured in adipocytes transfected with the uniform 2′-MOE phosphorothioate (PS) oligomeric compounds previously described. Cells are lysed on day nine post-transfection, in a guanadinium-containing buffer and total RNA is harvested. Real-time PCR is performed (Applied Biosystems, Prism 7700) on the total RNA using the following primer/probe sets for the adipocyte differentiation hallmark genes: (aP2): forward 5′-GGTGGTGGAATGCGTCATG-3′ (SEQ ID NO: 746), reverse 5′-[…]-3′ (SEQ ID NO: 747), probe 5′-FAM-[…]-TAMRA-3′ (SEQ ID NO: 748); (Glut4): forward 5′-GGCCTCCGCAGGTTCTG-3′ (SEQ ID NO: 749), reverse 5′-[…]-3′ (SEQ ID NO: 750), probe 5′-FAM-[…]-TAMRA-3′ (SEQ ID NO: 751); (HSL): forward 5′-ACCTGCGCACAATGACACA-3′ (SEQ ID NO: 752), reverse 5′-[…]-3′ (SEQ ID NO: 753), probe 5′-FAM-[…]-TAMRA-3′ (SEQ ID NO: 754); (PPAR-γ): forward 5′-[…]-3′ (SEQ ID NO: 755), reverse 5′-[…]-3′ (SEQ ID NO: 756), probe 5′-FAM-[…]-TAMRA-3′ (SEQ ID NO: 757). The amount of total RNA in each sample is determined using a Ribogreen Assay (Molecular Probes, Eugene, Oreg.), and expression levels of the adipocyte differentiation hallmark genes were normalized to total RNA. Leptin protein and triglyceride levels as well as mRNA levels for each of the four adipocyte differentiation hallmark genes are expressed relative to control levels (control=treatment with ISIS-29848 (SEQ ID NO: 737)).
In some embodiments, differentiating adipocytes were treated with uniform 2′-MOE phosphorothioate oligomeric compounds according to the methods described above, and the expression of the four hallmark genes, HSL, aP2, Glut4, and PPARγ, as well as triglyceride (TG) accumulation were measured. […] Undifferentiated adipocytes were also compared as a negative control. […] The effects of TNF-α, also known to inhibit adipocyte differentiation, were also measured.

Sequence | expression of the other four hallmark genes (HSL, aP2, Glut4, PPARγ) (differentiating adipocytes) | also measured
AACTACTTCCAGAGCAGGTGA (anti-miR; chemistry not fully specified) [ISIS 328136, uniform 2′-MOE PS; targets hypothetical miRNA-181] | reduction of expression of the other four hallmark genes | –
AACTATACAACCTACTACCTCA (chemistry not fully specified) [ISIS 327903, uniform 2′-MOE PS; targets let-7a-3] | – | expression levels of markers of adipocyte differentiation (TG, leptin, aP2, HSL, Glut4, PPARγ) (preadipocytes, 250 nM, day nine post-transfection, relative to ISIS-29848): increase in expression levels for several markers of adipocyte differentiation
ACTCACCGACAGCGTTGAATGTT (chemistry not given here) [ISIS 327904, uniform 2′-MOE PS; targets mir-181a] | – | five markers of adipocyte differentiation (differentiating adipocytes, % of UTC (Table 55)): reduce the expression levels of all five markers of adipocyte differentiation
AGCCTCCTTCTTCTCGTACTA (anti-miR; chemistry not fully specified) [ISIS 328129, uniform 2′-MOE PS; targets hypothetical miRNA-173] | reduction of expression of the other four hallmark genes | –
